# “Also recorded” adds a separate entry of the source.
# Columns and labels:
# [1] = tested on: P. berghei berghei (ANKA); assay: Causal prophylactic activity in the rodent malaria model (sporozoite-infected mice, single i.v. treatment 3 h after inoculation); assay type: in vivo, souris Swiss OF1; details: for index Pq (CPD₅₀ de la Pq/CPD₅₀ du composé): ratio of CPD₅₀ of Pq to CPD₅₀ of the derivative; for activité thérapeutique compared with Pq: qualitative comparison with primaquine; for CPD₅₀ (dose prophylactique causale guérissant 50 % des animaux infectés) / ED50: dose as mg Pq diphosphate/kg; for ED50: read-out: CPD₅₀ (dose prophylactique causale guérissant 50 % des animaux infectés); for index thérapeutique (LD₅₀/CPD₅₀): ratio LD₅₀/CPD₅₀
# Text: Le modèle de la malaria du rongeur, Plasmodium berghei-Anopheles stephensi-souris, mis au point par MOST, H., HERMAN, R. & SCHOENFELD, C. (1967) Am. J. Trop. Med. Hyg. 16, 572-575, permet de déterminer l'activité prophylactique causale (schizonticide tissulaire) de nouveaux composés thérapeutiques. La procédure utilisée est dérivée de celle de MOST, H. & MONTUORI, W.A. (1975) Am. J. Trop. Med. Hyg. 24, 179-182. Il s'agit du système P. berghei berghei (ANKA)- Anopheles stephensi-souris Swiss OF1. La souche ANKA de P. b. berghei est entretenue cycliquement sur Anopheles stephensi. La souche de souris Swiss OF1 est particulièrement sensible à P. b. berghei qui produit une infection toujours mortelle.
# Les moustiques femelles (80 à 100 individus par préparation) sont débarassés de leurs pattes, ailes et abdomen, puis homogénéisés à 4°C à l'aide d'un potter en verre, dans du milieu M 199 (GIBCO) contenant 10 % de sérum foetal de veau. La suspension de sporozoïtes est ensuite purifiée des débris du moustique par deux centrifugations successives ( 2 min. à 50 g et 5 min. à 200 g) et le surnageant recueilli est conservé à 4°C. Après comptage dans une chambre de Petroff-Hausser, le nombre de parasites est ajusté par dilution avec le même milieu froid, à la densité de 2 x 10⁵ sporozoïtes/ml. L'ensemble de la procédure est toujours effectuée dans un maximum de 35 minutes et permet de préserver la viabilité et l'infectivité des sporozoïtes.
# Un volume de 0,5 ml de la suspension contenant 10⁵ sporozoïtes est injectée i.v. aux souris Swiss OF1 femelles de 18 à 22 g utilisées pour les tests thérapeutiques.
# Des groupes de 20 à 25 souris infectées comme décrit ci-dessus sont traités en une seule injection intraveineuse de primaquine diphosphate (Pq) ou des dérivés monoacyls et aminoacides de la primaquine sous formes dichlorhydrates (X-Pq) trois heures après l'inoculation des sporozoïtes. Le volume injecté est ajusté en fonction du poids de la souris, à raison de 0,5 ml pour un poids de 25 g. Les composés sont dilués dans du tampon phosphate salin (PBS) pH 7.0 et le pH est ajusté à 7.0. Les souris infectées mais non traitées (5 par groupe) reçoivent le tampon seul et servent à contrôler l'infectivité des sporozoïtes.
# Les souris expérimentales sont gardées durant une période de 50 jours. Le développement de la parasitémie est suivi en examinant quotidiennement des frottis de sang, colorés 60 min. au Giemsa à 5 % dans du tampon Sörensen à pH 7,2, à partir du 5ème jour et ce jusqu'au 15ème jour. Le nombre d'animaux infectés peut ainsi être déterminé. Ces résultats permettent d'établir la survie à long terme (LTS, le nombre de souris survivantes non parasitées sur le nombre de souris infectées et traitées).
# L'activité prophylactique causale (CPD₅₀) est obtenue par l'analyse des logits de la réponse (exprimée en % de LTS) en fonction de la dose (mg Pq/kg).
# Les animaux infectés à l'aide de sporozoïtes de P. berghei sont traités trois heures après avec une seule injection des composés par voie intraveineuse. Ce test permet de définir l'activité prophylactique causale des composés ou la dose permettant de guérir 50 % des animaux infectés (CPD₅₀). La dose est toujours exprimée en mg de Pq diphosphate par kg.
# [2] = Acute toxicity after a single i.v. injection in non-infected mice; assay type: in vivo; details: for toxicité aiguë compared with Pq: qualitative comparison with primaquine; for LD50 / MTD: mouse, in vivo, iv; for LD50: mice, read-out: dose léthale 50 % (LD₅₀); for MTD: highest dose with weight loss <= 5 % over five days, read-out: dose maximale tolérée (MTD)
# Text: La toxicité aiguë en fonction de la dose unique administrée est déterminée sur des souris de 18 à 22 g. Une série de dilutions de chaque composé est injectée par voie intraveineuse à des groupes de 10 souris.
# ^a : les dérivés sont administrés par vote i.v. trois heures après l'inoculation des sporozoïtes. Les concentrations sont toujours exprimées en mg Pq diphosphate/kg. ^b : la dose maximale tolérée est définie code la dose la plus élevée induisant une perte de poids inférieure ou égale & 5 % du poids initial pendant une période de cinq jours suivant l'injection i.v. ^c : dose léthale tuant 50 % des souris en une seule injection i.v. ^d : dose prophylactique causale permettant de guérir 50 % des souris injectées. ^e : index thérapeutique défini par le rapport LD₅₀/CPD₅₀.
# [3] = single i.v. injection 3 h after sporozoite inoculation
# [4] = Plasmodium berghei, iv, single i.v. injection 3 h after sporozoite inoculation
Molecule,index Pq (CPD₅₀ de la Pq/CPD₅₀ du composé) [1],"dose minimale effective [1, 3]","dose totalement curative (100 %) [1, 3]",activité thérapeutique compared with Pq [1],"CPD₅₀ (dose prophylactique causale guérissant 50 % des animaux infectés) [1, 3]",toxicité aiguë compared with Pq [2],also measured
"COc1cc(NC(C)CCCNC(=O)[C@@H](N)CC(C)C)c2ncccc2c1 (stereo partly drawn) [L-leucyl-Pq, N-1-L-leucyl, N-4-(méthoxy-6-quinolinyl-8)pentanediamine-1,4]","1,2","7,6 mg Pq/kg",30 mg Pq/kg,–,–,–,"CPD₅₀ ([1]; single i.v. injection 3 h after sporozoite inoculation, unit printed without mg): 16,2 Pq/kg"
"COc1cc(NC(C)CCCNC(=O)[C@H](C)N)c2ncccc2c1 (stereo partly drawn) [L-alanyl-Pq, N-1-L-alanyl, N-4-(méthoxy-6-quinolinyl-8) pentanediamine-1,4]","3,0",4 mg Pq/kg,"9,9 mg Pq/kg",presque quatre fois supérieure à celle de la primaquine base,"6,3 mg Pq/kg",meilleure réduction de toxicité; also recorded: moins toxique que la primaquine,–
COc1cc(NC(C)CCCNC(=O)C(Cc2ccccc2)NC(=O)CCC(=O)O)c2ncccc2c1 [succinyl-L-phenylalanyl-Pq],–,–,–,nettement moins actifs que la Pq,–,–,–
"COc1cc(NC(C)CCCNC(=O)[C@@H](N)Cc2ccccc2)c2ncccc2c1 (stereo partly drawn) [L-phenylalanyl-Pq, N-1-L-phénylalanyl , N-4(methoxy-6-quinolinyl-8) pentanediamine-1,4]","3,1","1,8 mg Pq/kg","21,3 mg Pq/kg",–,"6,1 mg Pq/kg",voisine de celle de la Pq,–
L-glutamine,"1,9",–,–,–,10 mg Pq/kg,–,–
COc1cc(NC(C)CCCNC(=O)C(C)NC(=O)CCC(=O)O)c2ncccc2c1 [succinyl-L-alanyl-Pq],–,–,–,nettement moins actifs que la Pq,–,–,–
"COc1cc(NC(C)CCCNC(=O)[C@H](CC(C)C)NC(=O)[C@H](C)N)c2ncccc2c1 (stereo partly drawn) [L-leucyl-L-alanyl-Pq, N-1-L-Alanyl-L-Leucyl, N-4-(Méthoxy-6-quinolinyl-8) pentanediamine-1,4]",–,–,–,–,–,meilleure réduction de toxicité,–
"COc1cc(NC(C)CCCNC(=O)[C@@H](C)N)c2ncccc2c1 (stereo partly drawn) [D-alanine, N-1-D-alanyl, N-4-(méthoxy-6-quinolinyl-8)pentanediamine-1,4]",–,–,–,–,–,très faible toxicité,–
"COc1cc(NC(C)CCCN)c2ncccc2c1 (stereo not shown) [Pq, 6-méthoxy-8-(4-amino-1-méthylbutylamino)-quinoléine, reference compound]",–,–,–,–,–,–,"ED50 [1, 4]: 18.7 mg/kg; minimal effective dose ([1]; Plasmodium berghei, iv, single i.v. injection 3 h after sporozoite inoculation, read-out: dose minimale effective): 10.4 mg/kg; activité thérapeutique ([1]; at 25 mg/kg i.v.): 75%; index thérapeutique (LD₅₀/CPD₅₀) [1]: 1,7; toxicité dès ([2]; dose from which toxicity is seen, i.v.): ≥ 25 mg/kg; LD50 ([2]; single i.v. injection): 31 mg/kg; MTD ([2]; single i.v. injection): 25.7 mg/kg"
COc1cc(NC(C)CCCNC(=O)CCCC(=O)O)c2ncccc2c1 (stereo not shown) [glutarryl-Pq],–,–,–,nettement moins actifs que la Pq,–,–,–
COc1cc(NC(C)CCCNC(=O)[C@@H](N)CCCCN)c2ncccc2c1 (stereo partly drawn) [L-lysyl-Pq],"4,8","1,7 mg Pq/kg","8,2 mg Pq/kg",–,"3,9 mg Pq/kg",–,"plus toxique que la primaquine ([2]; acute toxicity, fold versus primaquine): 3 x; dose minimale toxique ([2]; single i.v. injection): 8,2 mg Pq/kg"
"COc1cc(NC(C)CCCNC(=O)[C@@H](N)CCC(=O)O)c2ncccc2c1 (stereo partly drawn) [L-glutamyl-Pq, N-1-L-glutamyl, N-4-(méthoxy-6-quinolinyl-8) pentadiamine-1,4]","2,2",–,–,–,–,le moins toxique; also recorded: meilleure réduction de toxicité,"ED50 [1, 4]: 8.5 mg/kg; index thérapeutique (LD₅₀/CPD₅₀) [1]: 16,1; LD₅₀ relative to the LD₅₀ of Pq ([2]; fold higher than Pq): 4 x; MTD relative to the MTD of Pq ([2]; fold higher than Pq): 5 x; LD50 ([2]; single i.v. injection): 136 mg/kg; MTD ([2]; single i.v. injection): 124 mg/kg"
